Values belong to the compound of their own block, whether it stands above or below them.
Tests used:
[1] = biological target: Mitogen-activated protein kinase kinase kinase 8 (Homo sapiens) (UniProt P41279); assay: Inhibition of human COT1 at 18.6 nM by HotSpot assay relative to control
[2] = biological target: STE20/SPS1-related proline-alanine-rich protein kinase (Homo sapiens) (UniProt Q9UEW8); assay: Inhibition of human STLK3 at 18.6 nM by HotSpot assay relative to control
[3] = biological target: Non-receptor tyrosine-protein kinase TYK2 (Homo sapiens) (UniProt P29597); assay: Inhibition of human TYK2 at 18.6 nM by HotSpot assay relative to control
[4] = biological target: G protein-coupled receptor kinase 5 (Homo sapiens) (UniProt P34947); assay: Inhibition of human GRK5 at 18.6 nM by HotSpot assay relative to control
[5] = biological target: Casein kinase II subunit alpha' (Homo sapiens) (UniProt P19784); assay: Inhibition of human CK2a2 at 18.6 nM by HotSpot assay relative to control
[6] = biological target: RAF proto-oncogene serine/threonine-protein kinase (Homo sapiens) (UniProt P04049); assay: Inhibition of human RAF1 at 18.6 nM by HotSpot assay relative to control
[7] = biological target: LIM domain kinase 1 (Homo sapiens) (UniProt P53667); assay: Inhibition of human LIMK1 at 18.6 nM by HotSpot assay relative to control
[8] = biological target: Tyrosine-protein kinase HCK (Homo sapiens) (UniProt P08631); assay: Inhibition of human HCK at 1.82 nM by HotSpot assay relative to control
[9] = biological target: Tyrosine-protein kinase Blk (Homo sapiens) (UniProt P51451); assay: Inhibition of human BLK at 1.82 nM by HotSpot assay relative to control
[10] = biological target: Serine/threonine-protein kinase pim-2 (Homo sapiens) (UniProt Q9P1W9); assay: Inhibition of human PIM2 at 1.82 nM by HotSpot assay relative to control
[11] = biological target: T1, cGMP-dependent protein kinase 2 (Homo sapiens) (UniProt Q13237); assay: Inhibition of human PRKG2 at 1.82 nM by HotSpot assay relative to control
T1 sequence (whole entry): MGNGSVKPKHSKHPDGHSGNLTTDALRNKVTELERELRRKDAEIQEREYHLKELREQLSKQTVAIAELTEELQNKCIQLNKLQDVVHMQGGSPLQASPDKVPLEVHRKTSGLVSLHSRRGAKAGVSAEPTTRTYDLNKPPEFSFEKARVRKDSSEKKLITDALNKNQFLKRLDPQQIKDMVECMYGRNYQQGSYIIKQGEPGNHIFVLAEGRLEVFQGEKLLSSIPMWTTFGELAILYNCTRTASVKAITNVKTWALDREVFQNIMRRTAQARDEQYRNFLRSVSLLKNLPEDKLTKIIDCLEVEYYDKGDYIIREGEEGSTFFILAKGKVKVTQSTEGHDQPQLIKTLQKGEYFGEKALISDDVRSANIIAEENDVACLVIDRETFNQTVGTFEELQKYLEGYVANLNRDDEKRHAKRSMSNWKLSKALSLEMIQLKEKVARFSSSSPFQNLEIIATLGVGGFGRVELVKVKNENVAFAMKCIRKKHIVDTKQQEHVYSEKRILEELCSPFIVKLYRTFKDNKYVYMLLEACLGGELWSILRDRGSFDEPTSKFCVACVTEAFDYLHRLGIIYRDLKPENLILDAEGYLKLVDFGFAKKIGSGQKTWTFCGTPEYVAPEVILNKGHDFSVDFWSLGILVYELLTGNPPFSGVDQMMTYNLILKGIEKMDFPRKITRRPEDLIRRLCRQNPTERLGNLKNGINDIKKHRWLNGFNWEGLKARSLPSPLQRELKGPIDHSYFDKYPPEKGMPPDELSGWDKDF

[12] = biological target: Serine/threonine-protein kinase Nek4 (Homo sapiens) (UniProt P51957); assay: Inhibition of human NEK4 at 1.82 nM by HotSpot assay relative to control
[13] = biological target: Platelet-derived growth factor receptor alpha (Homo sapiens) (UniProt P16234); assay: Inhibition of human PDGFRa at 1.82 nM by HotSpot assay relative to control
[14] = biological target: Mitogen-activated protein kinase kinase kinase 10 (Homo sapiens) (UniProt Q02779); assay: Inhibition of human MAP3K10 at 1.82 nM by HotSpot assay relative to control
[15] = biological target: Wee1-like protein kinase (Homo sapiens) (UniProt P30291); assay: Inhibition of human WEE1 at 1.82 nM by HotSpot assay relative to control
[16] = biological target: T2, Protein kinase C zeta type (Homo sapiens) (UniProt Q05513); assay: Inhibition of human PKCzeta at 1.82 nM by HotSpot assay relative to control
T2 sequence (whole entry): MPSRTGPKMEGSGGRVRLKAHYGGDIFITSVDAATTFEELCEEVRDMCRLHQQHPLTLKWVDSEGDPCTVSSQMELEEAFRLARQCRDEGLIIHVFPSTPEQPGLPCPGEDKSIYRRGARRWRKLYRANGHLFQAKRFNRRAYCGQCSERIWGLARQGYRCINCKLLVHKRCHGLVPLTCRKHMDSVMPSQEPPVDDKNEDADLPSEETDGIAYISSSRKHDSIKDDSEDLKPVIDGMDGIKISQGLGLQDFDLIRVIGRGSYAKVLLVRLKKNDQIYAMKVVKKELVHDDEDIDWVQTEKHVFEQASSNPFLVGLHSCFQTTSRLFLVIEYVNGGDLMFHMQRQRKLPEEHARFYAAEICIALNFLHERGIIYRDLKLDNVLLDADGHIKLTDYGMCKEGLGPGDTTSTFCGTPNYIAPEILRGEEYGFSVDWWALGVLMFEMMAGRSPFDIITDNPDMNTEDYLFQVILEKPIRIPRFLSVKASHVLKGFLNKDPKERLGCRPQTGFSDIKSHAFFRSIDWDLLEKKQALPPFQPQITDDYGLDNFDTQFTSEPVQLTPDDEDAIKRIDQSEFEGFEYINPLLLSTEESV

[17] = biological target: Tyrosine-protein kinase FRK (Homo sapiens) (UniProt P42685); assay: Inhibition of human FRK at 1.82 nM by HotSpot assay relative to control
[18] = biological target: Serine/threonine-protein kinase MARK1 (Homo sapiens) (UniProt Q9P0L2); assay: Inhibition of human MARK1 at 1.82 nM by HotSpot assay relative to control
[19] = biological target: Tyrosine-protein kinase Yes (Homo sapiens) (UniProt P07947); assay: Inhibition of human YES1 at 1.82 nM by HotSpot assay relative to control
[20] = biological target: Calcium/calmodulin-dependent protein kinase type II subunit gamma (Homo sapiens) (UniProt Q13555); assay: Inhibition of human CAMK2g at 1.82 nM by HotSpot assay relative to control
[21] = biological target: Mitogen-activated protein kinase 9 (Homo sapiens) (UniProt P45984); assay: Inhibition of human JNK2 at 1.82 nM by HotSpot assay relative to control
[22] = biological target: Casein kinase I isoform gamma-1 (Homo sapiens) (UniProt Q9HCP0); assay: Inhibition of human CK1g1 at 500 nM by HotSpot assay relative to control
Casein kinase I isoform gamma-1 (Homo sapiens), sequence (Q9HCP0 whole entry, looked up, canonical isoform): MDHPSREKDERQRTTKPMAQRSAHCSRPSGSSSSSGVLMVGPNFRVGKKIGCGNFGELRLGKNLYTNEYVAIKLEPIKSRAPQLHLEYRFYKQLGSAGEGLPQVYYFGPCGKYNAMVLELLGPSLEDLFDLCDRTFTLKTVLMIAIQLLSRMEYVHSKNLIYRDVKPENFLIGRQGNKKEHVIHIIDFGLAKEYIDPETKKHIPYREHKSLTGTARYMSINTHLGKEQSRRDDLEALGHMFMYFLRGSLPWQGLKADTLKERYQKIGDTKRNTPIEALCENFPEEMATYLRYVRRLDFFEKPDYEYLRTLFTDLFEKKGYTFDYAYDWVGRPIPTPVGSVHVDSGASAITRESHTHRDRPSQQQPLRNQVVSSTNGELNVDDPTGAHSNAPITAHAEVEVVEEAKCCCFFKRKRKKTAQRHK

Mitogen-activated protein kinase 9 (Homo sapiens), sequence (P45984 whole entry, looked up, canonical isoform): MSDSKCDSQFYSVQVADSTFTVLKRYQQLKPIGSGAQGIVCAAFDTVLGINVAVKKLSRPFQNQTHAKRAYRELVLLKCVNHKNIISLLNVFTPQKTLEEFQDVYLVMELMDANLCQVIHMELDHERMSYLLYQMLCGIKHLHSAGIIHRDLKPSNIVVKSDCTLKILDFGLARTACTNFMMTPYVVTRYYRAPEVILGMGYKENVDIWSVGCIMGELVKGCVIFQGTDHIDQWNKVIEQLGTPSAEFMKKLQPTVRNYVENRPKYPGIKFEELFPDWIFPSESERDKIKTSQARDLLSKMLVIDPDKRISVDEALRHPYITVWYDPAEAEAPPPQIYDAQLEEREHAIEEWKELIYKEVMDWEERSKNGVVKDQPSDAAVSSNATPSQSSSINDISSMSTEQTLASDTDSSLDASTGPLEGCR
Tyrosine-protein kinase Blk (Homo sapiens), sequence (P51451 2-505 limits assumed): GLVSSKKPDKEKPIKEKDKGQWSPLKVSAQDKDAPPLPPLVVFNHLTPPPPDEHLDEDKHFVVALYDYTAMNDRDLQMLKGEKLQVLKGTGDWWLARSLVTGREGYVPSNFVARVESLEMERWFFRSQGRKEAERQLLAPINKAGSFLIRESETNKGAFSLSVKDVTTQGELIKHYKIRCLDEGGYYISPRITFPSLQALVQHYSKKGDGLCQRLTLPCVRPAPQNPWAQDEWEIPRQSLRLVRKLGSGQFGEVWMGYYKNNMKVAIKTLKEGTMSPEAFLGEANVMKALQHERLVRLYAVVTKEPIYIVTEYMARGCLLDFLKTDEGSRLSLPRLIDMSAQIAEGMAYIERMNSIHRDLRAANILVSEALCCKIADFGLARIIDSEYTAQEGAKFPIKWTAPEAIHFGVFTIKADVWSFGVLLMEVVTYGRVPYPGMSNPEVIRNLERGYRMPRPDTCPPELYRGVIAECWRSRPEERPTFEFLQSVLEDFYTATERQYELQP
Tyrosine-protein kinase HCK (Homo sapiens), sequence (P08631 2-526 limits assumed): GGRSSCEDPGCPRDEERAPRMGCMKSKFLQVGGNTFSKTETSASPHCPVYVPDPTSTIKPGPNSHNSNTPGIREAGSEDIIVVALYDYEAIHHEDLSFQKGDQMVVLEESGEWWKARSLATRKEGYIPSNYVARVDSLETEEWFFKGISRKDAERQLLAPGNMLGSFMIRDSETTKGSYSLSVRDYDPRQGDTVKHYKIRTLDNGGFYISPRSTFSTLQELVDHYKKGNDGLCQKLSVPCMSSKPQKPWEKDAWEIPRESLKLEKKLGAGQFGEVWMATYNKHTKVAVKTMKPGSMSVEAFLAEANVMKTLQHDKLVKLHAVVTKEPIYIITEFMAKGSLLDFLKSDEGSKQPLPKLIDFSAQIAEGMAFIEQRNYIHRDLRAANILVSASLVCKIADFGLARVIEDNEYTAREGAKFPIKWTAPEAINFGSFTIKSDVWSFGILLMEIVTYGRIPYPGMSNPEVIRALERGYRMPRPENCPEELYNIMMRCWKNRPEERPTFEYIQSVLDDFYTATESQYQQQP
Serine/threonine-protein kinase Nek4 (Homo sapiens), sequence (P51957 whole entry, looked up): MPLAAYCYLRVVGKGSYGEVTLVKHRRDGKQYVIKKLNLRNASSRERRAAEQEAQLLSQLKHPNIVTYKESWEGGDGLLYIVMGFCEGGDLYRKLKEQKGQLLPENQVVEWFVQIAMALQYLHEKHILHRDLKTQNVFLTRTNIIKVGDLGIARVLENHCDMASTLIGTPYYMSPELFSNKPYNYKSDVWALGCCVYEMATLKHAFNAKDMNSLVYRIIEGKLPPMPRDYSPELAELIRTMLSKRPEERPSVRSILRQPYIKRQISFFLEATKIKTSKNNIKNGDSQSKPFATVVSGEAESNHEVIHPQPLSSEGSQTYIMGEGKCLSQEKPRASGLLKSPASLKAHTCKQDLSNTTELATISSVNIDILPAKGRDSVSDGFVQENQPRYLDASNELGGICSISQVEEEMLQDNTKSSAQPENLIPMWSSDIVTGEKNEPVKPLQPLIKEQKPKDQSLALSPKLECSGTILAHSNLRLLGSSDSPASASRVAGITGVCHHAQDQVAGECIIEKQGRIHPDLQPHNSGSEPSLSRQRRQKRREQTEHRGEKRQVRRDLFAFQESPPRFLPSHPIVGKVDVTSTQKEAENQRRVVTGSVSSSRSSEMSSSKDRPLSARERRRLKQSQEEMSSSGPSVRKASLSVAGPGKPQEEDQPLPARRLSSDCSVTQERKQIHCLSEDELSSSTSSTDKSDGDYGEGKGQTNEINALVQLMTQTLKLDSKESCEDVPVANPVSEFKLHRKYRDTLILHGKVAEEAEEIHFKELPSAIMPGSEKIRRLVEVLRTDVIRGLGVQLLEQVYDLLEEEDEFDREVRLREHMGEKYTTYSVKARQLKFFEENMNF
G protein-coupled receptor kinase 5 (Homo sapiens), sequence (P34947 whole entry, looked up): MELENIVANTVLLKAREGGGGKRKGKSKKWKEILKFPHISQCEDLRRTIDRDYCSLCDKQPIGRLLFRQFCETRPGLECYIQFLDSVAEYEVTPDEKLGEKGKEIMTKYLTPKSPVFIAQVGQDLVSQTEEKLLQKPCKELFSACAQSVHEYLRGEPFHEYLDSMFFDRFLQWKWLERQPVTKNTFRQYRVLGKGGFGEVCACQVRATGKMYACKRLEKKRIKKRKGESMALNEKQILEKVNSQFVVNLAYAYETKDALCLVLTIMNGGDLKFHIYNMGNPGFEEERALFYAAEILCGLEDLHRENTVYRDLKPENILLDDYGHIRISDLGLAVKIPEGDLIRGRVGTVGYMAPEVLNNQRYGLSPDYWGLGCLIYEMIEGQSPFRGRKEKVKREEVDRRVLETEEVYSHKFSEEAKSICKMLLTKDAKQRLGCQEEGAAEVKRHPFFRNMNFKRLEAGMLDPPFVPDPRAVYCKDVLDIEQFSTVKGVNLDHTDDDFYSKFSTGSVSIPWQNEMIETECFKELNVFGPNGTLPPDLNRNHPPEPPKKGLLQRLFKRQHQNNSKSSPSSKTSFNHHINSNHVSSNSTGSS
Mitogen-activated protein kinase kinase kinase 8 (Homo sapiens), sequence (P41279 whole entry): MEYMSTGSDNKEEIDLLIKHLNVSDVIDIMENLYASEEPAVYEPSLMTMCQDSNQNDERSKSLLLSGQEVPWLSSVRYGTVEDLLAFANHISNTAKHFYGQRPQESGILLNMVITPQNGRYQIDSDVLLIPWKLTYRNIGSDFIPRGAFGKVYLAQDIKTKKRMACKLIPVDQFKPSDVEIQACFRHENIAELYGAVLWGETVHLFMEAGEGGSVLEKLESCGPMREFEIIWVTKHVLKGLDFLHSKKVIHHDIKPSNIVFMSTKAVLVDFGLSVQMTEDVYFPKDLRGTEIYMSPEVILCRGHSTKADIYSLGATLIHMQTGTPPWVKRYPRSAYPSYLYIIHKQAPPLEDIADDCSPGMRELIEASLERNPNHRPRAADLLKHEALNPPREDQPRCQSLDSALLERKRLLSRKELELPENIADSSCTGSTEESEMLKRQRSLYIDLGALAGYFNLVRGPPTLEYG
Non-receptor tyrosine-protein kinase TYK2 (Homo sapiens), sequence (P29597 whole entry): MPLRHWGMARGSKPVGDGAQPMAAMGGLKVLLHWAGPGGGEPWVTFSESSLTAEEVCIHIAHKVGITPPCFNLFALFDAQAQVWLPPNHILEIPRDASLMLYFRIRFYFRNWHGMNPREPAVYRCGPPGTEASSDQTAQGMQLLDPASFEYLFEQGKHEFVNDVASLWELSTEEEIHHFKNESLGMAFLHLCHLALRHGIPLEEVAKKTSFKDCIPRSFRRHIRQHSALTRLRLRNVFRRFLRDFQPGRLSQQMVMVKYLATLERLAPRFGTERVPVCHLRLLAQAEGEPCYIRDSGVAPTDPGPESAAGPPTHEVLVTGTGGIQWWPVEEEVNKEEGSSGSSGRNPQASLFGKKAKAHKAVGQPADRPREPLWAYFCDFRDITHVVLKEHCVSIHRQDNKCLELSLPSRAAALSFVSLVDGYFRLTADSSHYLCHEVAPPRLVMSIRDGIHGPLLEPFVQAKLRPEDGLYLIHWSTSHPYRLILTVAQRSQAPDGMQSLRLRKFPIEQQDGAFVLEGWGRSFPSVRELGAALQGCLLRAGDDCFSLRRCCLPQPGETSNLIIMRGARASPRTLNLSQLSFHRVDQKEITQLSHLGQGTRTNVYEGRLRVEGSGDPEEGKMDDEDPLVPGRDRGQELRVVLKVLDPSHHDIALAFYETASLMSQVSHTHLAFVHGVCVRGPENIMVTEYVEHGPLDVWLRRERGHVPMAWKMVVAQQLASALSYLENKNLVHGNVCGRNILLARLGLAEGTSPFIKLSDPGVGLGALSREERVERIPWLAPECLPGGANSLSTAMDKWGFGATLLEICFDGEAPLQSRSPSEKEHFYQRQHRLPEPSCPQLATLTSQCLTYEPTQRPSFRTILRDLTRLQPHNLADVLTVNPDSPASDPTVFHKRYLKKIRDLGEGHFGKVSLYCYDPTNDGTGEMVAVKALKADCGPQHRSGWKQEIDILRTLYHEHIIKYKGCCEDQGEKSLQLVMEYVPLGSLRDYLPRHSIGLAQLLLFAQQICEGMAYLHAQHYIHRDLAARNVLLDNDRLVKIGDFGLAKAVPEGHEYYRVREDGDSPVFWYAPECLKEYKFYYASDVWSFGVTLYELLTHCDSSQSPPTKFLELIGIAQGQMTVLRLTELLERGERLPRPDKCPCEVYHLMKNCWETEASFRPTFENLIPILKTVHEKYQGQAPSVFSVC

inhibition [1]: 4.92% | inhibition [2]: -7.19% | inhibition [3]: -4.07% | inhibition [4]: -6.77% | inhibition [5]: 38.2% | inhibition [6]: -5.79% | inhibition [7]: -8.11%
Compound: C[C@]1(O)C[C@@H](c2nc(-c3ccc4ccc(-c5ccccc5)nc4c3)c3c(N)nccn32)C1

inhibition [8]: 9.36% | inhibition [9]: -5.89% | inhibition [10]: -3.22% | inhibition [11]: -0.02% | inhibition [12]: -3.35% | inhibition [13]: 0.58% | inhibition [14]: -1.81% | inhibition [15]: 1.94% | inhibition [16]: -1.74% | inhibition [17]: 0.97% | inhibition [18]: -3.41% | inhibition [19]: 5.36% | inhibition [20]: 4.1% | inhibition [21]: -2.41%
Compound: C[C@@]1(C(=O)Nc2ccc(F)nc2)CCCN1c1nc(Nc2cc(C3CC3)n[nH]2)c2cccn2n1

Compound: Nc1n[nH]c2nnc(-c3c(-c4ccccc4)nn4ccccc34)cc12
inhibition [22]: -3.88%

From ChEMBL document CHEMBL5653615 (J Biol Chem, 2013)
